Test results published in US20170209364A1, “Method For Treating The Appearance Of Thinning Hair” (priority 2016, published 2017).

Columns and labels:
[1] = tested on: 5-α reductase enzyme; assay: 5-α reductase inhibition: [14C]-testosterone metabolism to DHT in cultured cells (TLC/autoradiography); type: cell-based; settings: Finasteride 1 × 10^−5 M (reference)
Description: Cells were seeded in a 24-well plate and cultured for 24 hours in culture medium. […] Cells were then treated with assay medium containing [^14C]-testosterone and containing the test compound, the association or the reference and the cells were incubated for 24 hours. The culture supernatants were then collected for testosterone metabolism analysis and a standard MTT reduction assay was performed on the cell layers (cell viability assessment).
All experimental conditions were performed in n=3.
The steroid molecules from supernatants were extracted with a chloroform/methanol mix. The organic phase was collected and the different molecular species (testosterone metabolites) were separated by thin layer chromatography (TLC) and using a solvent system containing dichloromethane, ethyl acetate and methanol.
An autoradiography was performed on the chromatography and the transformed testosterone was estimated by densitometric analysis of the different spots corresponding to testosterone metabolites (Packard Cyclone Phosphorlmager and Fujifilm Multigauge software).

[2] = in vitro
Description: Cells were seeded in a 24-well plate and cultured for 24 hours in culture medium.
At the end of incubation, the cells were incubated with MTT (tetrazolium salt) reduced in blue formazan crystals by succinate dehydrogenase (mitochondrial enzyme). This transformation is proportional to the enzyme activity. After cell dissociation and formazan crystal solubilization using DMSO, the optical density (OD) of the extracts at 540 nm, proportional to the number of living cells and their metabolic activity, was recorded with a microplate reader (VERSAmax, Molecular Devices). The equation used for measuring cell viability is as follows: viability (%)=(OD sample/OD control)×100.
Dermal papilla cell viability is measured with a standard MTT assay (via ASTM E2526-08(2013)).

CC(C)(C)NC(=O)[C@H]1CC[C@H]2[C@@H]3CC[C@H]4NC(=O)C=C[C@]4(C)[C@H]3CC[C@]12C [Finasteride, finasteride]
DHT/Testosterone ratio as % of Control [1]: 28%
viability at 48 h [2]: 101%
